According to ChEMBL document CHEMBL4507265 (2021):

Assays:
[1] = biological target: cAMP-dependent protein kinase catalytic subunit beta (Homo sapiens) (UniProt P22694); details: Compound concentration 1000.0 nM
[2] = biological target: Homeodomain-interacting protein kinase 3 (Homo sapiens) (UniProt Q9H422); details: Compound concentration 1000.0 nM
[3] = test system: Mast/stem cell growth factor receptor Kit (Homo sapiens), P10721 [A829P]; details: Compound concentration 1000.0 nM
[4] = biological target: Serine/threonine-protein kinase TAO3 (Homo sapiens) (UniProt Q9H2K8); details: Compound concentration 1000.0 nM
[5] = test system: Phosphatidylinositol 4,5-bisphosphate 3-kinase catalytic subunit alpha isoform (Homo sapiens), P42336 [C420R]; details: Compound concentration 1000.0 nM
[6] = biological target: Serine/threonine-protein kinase haspin (Homo sapiens) (UniProt Q8TF76); details: Compound concentration 1000.0 nM
[7] = biological target: BDNF/NT-3 growth factors receptor (Homo sapiens) (UniProt Q16620); details: Compound concentration 1000.0 nM
[8] = biological target: Mitogen-activated protein kinase 4 (Homo sapiens) (UniProt P31152); details: Compound concentration 1000.0 nM
[9] = biological target: Casein kinase II subunit alpha (Homo sapiens) (UniProt P68400); details: Compound concentration 1000.0 nM
[10] = biological target: Cyclin-dependent kinase 18 (Homo sapiens) (UniProt Q07002); details: Compound concentration 1000.0 nM
[11] = biological target: Dual specificity testis-specific protein kinase 1 (Homo sapiens) (UniProt Q15569); details: Compound concentration 1000.0 nM
[12] = biological target: Macrophage colony-stimulating factor 1 receptor (Homo sapiens) (UniProt P07333); details: Compound concentration 1000.0 nM
[13] = biological target: Protein-tyrosine kinase 2-beta (Homo sapiens) (UniProt Q14289); details: Compound concentration 1000.0 nM
[14] = biological target: Phosphatidylinositol 4,5-bisphosphate 3-kinase catalytic subunit alpha isoform (Homo sapiens) (UniProt P42336); details: Compound concentration 1000.0 nM
[15] = biological target: Serine/threonine-protein kinase 38 (Homo sapiens) (UniProt Q15208); details: Compound concentration 1000.0 nM
[16] = test system: Epidermal growth factor receptor (Homo sapiens), P00533 [L861Q]; details: Compound concentration 1000.0 nM
[17] = biological target: Cyclin-dependent kinase 9 (Homo sapiens) (UniProt P50750); details: Compound concentration 1000.0 nM
[18] = biological target: Sodium-dependent noradrenaline transporter (Homo sapiens) (UniProt P23975); details: Compound concentration 10.0 uM
[19] = biological target: Serine/threonine-protein kinase RIO3 (Homo sapiens) (UniProt O14730); details: Compound concentration 1000.0 nM
[20] = biological target: Tyrosine-protein kinase Fer (Homo sapiens) (UniProt P16591); details: Compound concentration 1000.0 nM
[21] = biological target: Serine/threonine-protein kinase MRCK alpha (Homo sapiens) (UniProt Q5VT25); details: Compound concentration 1000.0 nM
[22] = test system: Receptor-type tyrosine-protein kinase FLT3 (Homo sapiens), P36888 [K663Q]; details: Compound concentration 1000.0 nM
[23] = biological target: NT-3 growth factor receptor (Homo sapiens) (UniProt Q16288); details: Compound concentration 1000.0 nM
[24] = biological target: Mitogen-activated protein kinase kinase kinase 11 (Homo sapiens) (UniProt Q16584); details: Compound concentration 1000.0 nM
[25] = test system: Phosphatidylinositol 4,5-bisphosphate 3-kinase catalytic subunit alpha isoform (Homo sapiens), P42336 [E542K]; details: Compound concentration 1000.0 nM
[26] = biological target: Ribosomal protein S6 kinase alpha-2 (Homo sapiens) (UniProt Q15349); details: Compound concentration 1000.0 nM
[27] = biological target: Angiopoietin-1 receptor (Homo sapiens) (UniProt Q02763); details: Compound concentration 1000.0 nM
[28] = biological target: Activin receptor type-2B (Homo sapiens) (UniProt Q13705); details: Compound concentration 1000.0 nM
[29] = biological target: Serine/threonine-protein kinase PAK 5 (Homo sapiens) (UniProt Q9P286); details: Compound concentration 1000.0 nM
[30] = biological target: Serine/threonine-protein kinase 10 (Homo sapiens) (UniProt O94804); details: Compound concentration 1000.0 nM
[31] = biological target: Phosphatidylinositol 5-phosphate 4-kinase type-2 gamma (Homo sapiens) (UniProt Q8TBX8); details: Compound concentration 1000.0 nM
[32] = biological target: Epithelial discoidin domain-containing receptor 1 (Homo sapiens) (UniProt Q08345); details: Compound concentration 1000.0 nM
[33] = biological target: Serine/threonine-protein kinase MRCK gamma (Homo sapiens) (UniProt Q6DT37); details: Compound concentration 1000.0 nM
[34] = biological target: Serine/threonine-protein kinase PAK 2 (Homo sapiens) (UniProt Q13177); details: Compound concentration 1000.0 nM
[35] = test system: Receptor-type tyrosine-protein kinase FLT3 (Homo sapiens), P36888 [N841I]; details: Compound concentration 1000.0 nM
[36] = biological target: Sigma non-opioid intracellular receptor 1 (Homo sapiens) (UniProt Q99720); details: Compound concentration 10.0 uM
[37] = biological target: cAMP-dependent protein kinase catalytic subunit PRKX (Homo sapiens) (UniProt P51817); details: Compound concentration 1000.0 nM
[38] = biological target: Mast/stem cell growth factor receptor Kit (Homo sapiens) (UniProt P10721); details: Compound concentration 1000.0 nM
[39] = biological target: Serine/threonine-protein kinase RIO1 (Homo sapiens) (UniProt Q9BRS2); details: Compound concentration 1000.0 nM
[40] = biological target: Serine/threonine-protein kinase Nek9 (Homo sapiens) (UniProt Q8TD19); details: Compound concentration 1000.0 nM
[41] = biological target: Testis-specific serine/threonine-protein kinase 1 (Homo sapiens) (UniProt Q9BXA7); details: Compound concentration 1000.0 nM
[42] = biological target: Serine/threonine-protein kinase 36 (Homo sapiens) (UniProt Q9NRP7); details: Compound concentration 1000.0 nM
[43] = test system: ALK tyrosine kinase receptor (Homo sapiens), Q9UM73 [C1156Y]; details: Compound concentration 1000.0 nM
[44] = biological target: Cyclin-dependent kinase 15 (Homo sapiens) (UniProt Q96Q40); details: Compound concentration 1000.0 nM
[45] = biological target: Beta-adrenergic receptor kinase 1 (Homo sapiens) (UniProt P25098); details: Compound concentration 1000.0 nM

Sequence of Serine/threonine-protein kinase 38 (Homo sapiens) (Q15208 2-465 limits assumed): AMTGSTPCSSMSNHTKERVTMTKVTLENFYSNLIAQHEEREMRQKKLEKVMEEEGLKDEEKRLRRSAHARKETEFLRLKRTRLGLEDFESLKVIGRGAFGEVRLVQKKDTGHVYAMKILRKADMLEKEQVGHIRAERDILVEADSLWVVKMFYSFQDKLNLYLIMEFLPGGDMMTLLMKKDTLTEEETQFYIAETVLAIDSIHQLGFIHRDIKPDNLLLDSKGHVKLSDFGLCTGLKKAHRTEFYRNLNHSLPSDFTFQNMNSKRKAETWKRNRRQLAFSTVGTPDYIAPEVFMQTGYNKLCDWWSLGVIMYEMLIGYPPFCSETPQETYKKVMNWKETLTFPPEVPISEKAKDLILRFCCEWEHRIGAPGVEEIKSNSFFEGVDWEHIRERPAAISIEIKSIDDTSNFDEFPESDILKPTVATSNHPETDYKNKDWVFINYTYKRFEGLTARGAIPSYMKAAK
Sequence of Mast/stem cell growth factor receptor Kit (Homo sapiens) (P10721 whole entry): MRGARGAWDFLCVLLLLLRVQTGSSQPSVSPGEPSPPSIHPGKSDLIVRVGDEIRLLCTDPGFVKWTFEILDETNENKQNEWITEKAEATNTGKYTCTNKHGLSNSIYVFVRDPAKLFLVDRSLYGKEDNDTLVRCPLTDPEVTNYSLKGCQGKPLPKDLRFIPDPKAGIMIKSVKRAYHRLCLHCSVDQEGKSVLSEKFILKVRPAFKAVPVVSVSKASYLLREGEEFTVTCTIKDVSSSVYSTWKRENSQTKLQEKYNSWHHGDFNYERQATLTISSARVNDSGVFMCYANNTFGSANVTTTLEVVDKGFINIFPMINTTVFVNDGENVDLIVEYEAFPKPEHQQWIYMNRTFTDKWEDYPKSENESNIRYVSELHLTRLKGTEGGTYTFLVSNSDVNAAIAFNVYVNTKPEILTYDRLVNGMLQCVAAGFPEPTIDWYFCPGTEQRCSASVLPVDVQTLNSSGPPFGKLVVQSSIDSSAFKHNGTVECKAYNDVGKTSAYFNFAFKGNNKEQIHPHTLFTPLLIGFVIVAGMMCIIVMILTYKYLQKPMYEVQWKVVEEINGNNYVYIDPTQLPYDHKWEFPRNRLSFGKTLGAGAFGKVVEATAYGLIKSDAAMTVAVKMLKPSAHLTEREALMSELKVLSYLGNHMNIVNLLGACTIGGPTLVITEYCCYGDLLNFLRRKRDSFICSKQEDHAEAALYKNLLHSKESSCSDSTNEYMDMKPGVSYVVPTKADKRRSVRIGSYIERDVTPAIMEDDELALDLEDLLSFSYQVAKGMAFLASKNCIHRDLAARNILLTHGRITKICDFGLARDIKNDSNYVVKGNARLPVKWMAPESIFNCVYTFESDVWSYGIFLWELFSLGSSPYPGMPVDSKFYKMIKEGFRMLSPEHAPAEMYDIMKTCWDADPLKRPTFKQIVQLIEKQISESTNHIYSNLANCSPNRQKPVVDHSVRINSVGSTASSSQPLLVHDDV
Sequence of NT-3 growth factor receptor (Homo sapiens) (Q16288 32-839 limits assumed): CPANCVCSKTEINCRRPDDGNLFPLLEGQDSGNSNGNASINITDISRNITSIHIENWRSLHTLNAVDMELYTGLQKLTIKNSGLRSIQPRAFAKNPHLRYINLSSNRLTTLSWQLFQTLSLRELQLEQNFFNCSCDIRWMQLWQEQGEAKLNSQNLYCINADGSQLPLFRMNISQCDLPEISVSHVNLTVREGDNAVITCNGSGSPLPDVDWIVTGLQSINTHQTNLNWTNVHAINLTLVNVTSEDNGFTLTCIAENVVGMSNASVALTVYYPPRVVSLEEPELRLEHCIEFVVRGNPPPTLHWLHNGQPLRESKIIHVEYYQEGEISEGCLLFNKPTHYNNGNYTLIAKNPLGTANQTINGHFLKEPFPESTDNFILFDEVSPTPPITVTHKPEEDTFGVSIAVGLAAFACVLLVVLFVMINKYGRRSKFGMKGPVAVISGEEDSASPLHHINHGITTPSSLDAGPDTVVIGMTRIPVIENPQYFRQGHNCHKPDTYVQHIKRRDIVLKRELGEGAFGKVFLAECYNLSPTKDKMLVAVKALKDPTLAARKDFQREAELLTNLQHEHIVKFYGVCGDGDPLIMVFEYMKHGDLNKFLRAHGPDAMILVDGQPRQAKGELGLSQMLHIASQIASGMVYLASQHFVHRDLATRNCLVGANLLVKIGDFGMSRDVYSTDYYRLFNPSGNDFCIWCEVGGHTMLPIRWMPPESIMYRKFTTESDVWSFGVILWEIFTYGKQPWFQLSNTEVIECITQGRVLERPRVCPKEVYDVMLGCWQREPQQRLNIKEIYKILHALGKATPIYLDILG
Sequence of Phosphatidylinositol 4,5-bisphosphate 3-kinase catalytic subunit alpha isoform (Homo sapiens), P42336 [C420R] (P42336 whole entry C420R, canonical isoform): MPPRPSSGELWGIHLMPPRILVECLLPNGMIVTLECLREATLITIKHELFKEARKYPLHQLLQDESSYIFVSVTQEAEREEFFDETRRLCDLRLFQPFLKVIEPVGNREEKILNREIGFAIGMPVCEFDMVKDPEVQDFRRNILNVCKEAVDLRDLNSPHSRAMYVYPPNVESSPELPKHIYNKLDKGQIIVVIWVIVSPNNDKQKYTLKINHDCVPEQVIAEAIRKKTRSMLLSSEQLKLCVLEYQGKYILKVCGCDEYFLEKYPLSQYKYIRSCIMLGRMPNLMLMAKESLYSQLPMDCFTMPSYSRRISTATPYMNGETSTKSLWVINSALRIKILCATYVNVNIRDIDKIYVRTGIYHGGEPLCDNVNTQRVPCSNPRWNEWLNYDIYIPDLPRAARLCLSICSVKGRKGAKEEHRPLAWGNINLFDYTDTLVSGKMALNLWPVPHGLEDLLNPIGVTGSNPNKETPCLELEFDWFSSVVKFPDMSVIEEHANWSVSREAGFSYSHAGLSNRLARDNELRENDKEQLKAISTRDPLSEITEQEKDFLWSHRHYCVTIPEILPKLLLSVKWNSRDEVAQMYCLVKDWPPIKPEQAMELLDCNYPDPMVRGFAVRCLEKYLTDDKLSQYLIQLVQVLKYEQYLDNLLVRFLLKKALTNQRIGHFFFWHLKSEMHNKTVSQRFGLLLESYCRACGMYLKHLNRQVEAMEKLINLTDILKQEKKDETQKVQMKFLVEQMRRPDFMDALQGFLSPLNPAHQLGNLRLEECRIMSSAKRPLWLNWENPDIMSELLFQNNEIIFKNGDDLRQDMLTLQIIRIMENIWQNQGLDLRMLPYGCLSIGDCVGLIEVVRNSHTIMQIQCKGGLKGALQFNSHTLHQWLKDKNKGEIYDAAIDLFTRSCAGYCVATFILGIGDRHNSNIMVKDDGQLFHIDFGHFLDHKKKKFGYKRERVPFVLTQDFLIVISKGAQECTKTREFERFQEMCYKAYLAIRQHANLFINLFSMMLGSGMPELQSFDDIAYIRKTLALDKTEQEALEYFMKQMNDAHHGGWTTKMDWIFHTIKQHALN
Sequence of Serine/threonine-protein kinase PAK 2 (Homo sapiens) (Q13177 whole entry): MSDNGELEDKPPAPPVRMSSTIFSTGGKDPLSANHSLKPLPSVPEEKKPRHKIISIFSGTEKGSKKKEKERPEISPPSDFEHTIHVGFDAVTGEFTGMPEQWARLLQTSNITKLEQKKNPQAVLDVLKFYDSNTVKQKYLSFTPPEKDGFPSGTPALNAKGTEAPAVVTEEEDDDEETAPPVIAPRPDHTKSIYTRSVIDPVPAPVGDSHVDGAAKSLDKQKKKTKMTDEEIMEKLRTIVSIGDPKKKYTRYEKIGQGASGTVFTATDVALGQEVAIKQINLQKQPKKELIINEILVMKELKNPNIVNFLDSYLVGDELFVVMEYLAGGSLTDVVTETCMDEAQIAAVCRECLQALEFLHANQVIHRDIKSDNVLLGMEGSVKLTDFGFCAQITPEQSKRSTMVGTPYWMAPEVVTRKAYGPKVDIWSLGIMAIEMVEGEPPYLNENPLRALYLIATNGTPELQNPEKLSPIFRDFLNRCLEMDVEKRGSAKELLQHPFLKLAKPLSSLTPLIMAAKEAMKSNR
Sequence of Serine/threonine-protein kinase RIO1 (Homo sapiens) (Q9BRS2 whole entry): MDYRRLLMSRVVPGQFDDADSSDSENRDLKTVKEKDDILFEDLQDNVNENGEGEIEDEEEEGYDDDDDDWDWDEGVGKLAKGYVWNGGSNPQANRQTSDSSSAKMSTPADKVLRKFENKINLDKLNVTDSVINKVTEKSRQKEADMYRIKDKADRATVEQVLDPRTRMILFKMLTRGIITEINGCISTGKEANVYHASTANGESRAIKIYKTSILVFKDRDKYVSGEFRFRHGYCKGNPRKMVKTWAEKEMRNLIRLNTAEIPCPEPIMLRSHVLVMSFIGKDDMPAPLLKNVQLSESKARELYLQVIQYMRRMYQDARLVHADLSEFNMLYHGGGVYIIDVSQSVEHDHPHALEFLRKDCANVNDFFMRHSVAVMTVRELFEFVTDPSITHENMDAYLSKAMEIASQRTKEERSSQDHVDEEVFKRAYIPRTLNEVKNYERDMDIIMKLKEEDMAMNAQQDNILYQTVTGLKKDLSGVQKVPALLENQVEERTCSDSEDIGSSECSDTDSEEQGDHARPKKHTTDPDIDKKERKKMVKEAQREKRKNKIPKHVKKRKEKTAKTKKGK
Sequence of Cyclin-dependent kinase 9 (Homo sapiens) (P50750 whole entry): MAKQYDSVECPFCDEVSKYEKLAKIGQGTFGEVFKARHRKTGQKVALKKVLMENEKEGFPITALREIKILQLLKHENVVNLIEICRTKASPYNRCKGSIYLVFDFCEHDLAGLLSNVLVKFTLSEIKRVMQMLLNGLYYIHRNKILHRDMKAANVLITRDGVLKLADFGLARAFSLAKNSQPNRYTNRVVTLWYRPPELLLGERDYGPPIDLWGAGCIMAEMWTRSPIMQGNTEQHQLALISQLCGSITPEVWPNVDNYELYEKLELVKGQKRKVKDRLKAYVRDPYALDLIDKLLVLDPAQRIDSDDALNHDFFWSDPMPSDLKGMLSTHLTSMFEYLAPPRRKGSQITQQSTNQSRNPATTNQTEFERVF
Sequence of Sigma non-opioid intracellular receptor 1 (Homo sapiens) (Q99720 whole entry): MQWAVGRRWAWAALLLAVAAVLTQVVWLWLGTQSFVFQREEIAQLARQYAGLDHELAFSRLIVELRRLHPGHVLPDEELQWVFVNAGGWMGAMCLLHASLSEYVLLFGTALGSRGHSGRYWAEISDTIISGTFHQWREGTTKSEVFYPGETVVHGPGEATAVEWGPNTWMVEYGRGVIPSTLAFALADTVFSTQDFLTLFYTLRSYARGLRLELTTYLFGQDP

NS(=O)(=O)c1cc(NC(=O)C2(c3ccccc3Cl)CC2)ccc1Oc1cccc(Cl)c1 [BAY-207]
inactive: residual activity [1] 88% | residual activity [2] 100% | residual activity [3] 69% | residual activity [4] 100% | residual activity [5] 100% | residual activity [6] 96% | residual activity [7] 100% | residual activity [8] 87% | residual activity [9] 100% | residual activity [10] 69% | residual activity [11] 100% | residual activity [12] 100% | residual activity [13] 91% | residual activity [14] 100% | residual activity [15] 81% | residual activity [16] 76% | residual activity [17] 78% | inhibition [18] 22.4% | residual activity [19] 73% | residual activity [20] 83% | residual activity [21] 95% | residual activity [22] 100% | residual activity [23] 88% | residual activity [24] 79% | residual activity [25] 80% | residual activity [26] 91% | residual activity [27] 69% | residual activity [28] 90% | residual activity [29] 100% | residual activity [30] 69% | residual activity [31] 62% | residual activity [32] 83% | residual activity [33] 82% | residual activity [34] 100% | inhibition [36] 18.6% | residual activity [37] 77% | residual activity [38] 90% | residual activity [39] 84% | residual activity [40] 94% | residual activity [41] 100% | residual activity [42] 99% | residual activity [43] 100% | residual activity [44] 98% | residual activity [45] 100%
active: residual activity [35] 32%

NS(=O)(=O)c1cc(NC(=O)Cc2ccccc2)ccc1Oc1cccc(Cl)c1 [BAY-1797]
inactive: residual activity [1] 100% | residual activity [2] 84% | residual activity [3] 74% | residual activity [4] 75% | residual activity [5] 62% | residual activity [6] 100% | residual activity [7] 66% | residual activity [8] 91% | residual activity [9] 96% | residual activity [10] 100% | residual activity [11] 100% | residual activity [12] 51% | residual activity [13] 79% | residual activity [14] 89% | residual activity [15] 90% | residual activity [16] 64% | residual activity [17] 92% | inhibition [18] 0.53% | residual activity [19] 73% | residual activity [20] 73% | residual activity [21] 91% | residual activity [22] 99% | residual activity [23] 87% | residual activity [24] 78% | residual activity [25] 87% | residual activity [26] 100% | residual activity [27] 90% | residual activity [28] 75% | residual activity [29] 63% | residual activity [30] 65% | residual activity [31] 100% | residual activity [32] 94% | residual activity [33] 100% | residual activity [34] 91% | residual activity [35] 55% | inhibition [36] -8.2% | residual activity [37] 91% | residual activity [38] 89% | residual activity [39] 93% | residual activity [40] 83% | residual activity [41] 100% | residual activity [42] 100% | residual activity [43] 88% | residual activity [44] 88% | residual activity [45] 97%
